Data taken from patent publication EP1490333B1, “NEW ATORVASTATIN SALTS AND PHARMACEUTICAL COMPOSITIONS CONTAINING THEM” (Richter Gedeon Nyrt., priority 2002, dated 2003).
Counter-ions that a name gives are not always drawn.

Columns and labels:
[1] = Specific surface of the salts; assay type: physicochemical
[2] = tested on: Caco-2 human epithelial cells; details: for absorption of atorvastatin: microtablets of the three basic salts placed on the mono layers, compared with each other, Figure 1
Procedure: The essence of the method is, that microtablets are pressed from the drug substances to be examined without adding auxiliaries. The microtablets are made under the same conditions with the same pressing force, therefor the rate of penetration through cell-layer is determined by the intrinsic features of the examined substances.
In the model the absorption of atorvastatin through human epithelial (Caco-2) mono cell-layer was measured in such a way, that the microtablets prepared from the test compounds were placed on the mono cell-layers in the vessels containing physiological saline, then the time dependent amount of the test substance, which passed through the mono cell-layer was determined from the saline solution of the other side of the mono cell-layer by chromatography.
During the experiments 4 µmol base equivalent amounts were placed on the mono cell-layers from the microtablets.
During the experiments the reference compounds were placed on the mono cell-layer (luminal side, which in vivo equals the inner side of the intestine) in solution, the amount of the test substance, which passed through the mono cell-layer (abluminal side, which in vivo equals the blood circulation) was determined by chromatography, then the absorption coefficient characteristic for the absorption of the compounds was calculated (the English abbreviation used in the literature: Papp value).
At the end of the absorption experiments the intactness of the epithelial mono cell-layers was microscopically checked after tainting with toluidine blue. The amount of the test and reference compounds in the samples was determined by HPLC.

[3] = in vivo; cited from earlier work

Row | Compound | specific surface [1] [m^2/g] | absorption (penetration) of atorvastatin in Caco-2 model ([2]; compared with polymorph I (crystal form I) of hemi-calcium salt) | absorption of atorvastatin [2] | appearance of atorvastatin on the abluminal side of the mono cell-layers ([2]; microtablets, compared with microtablets of polymorph I of hemi-calcium salt, Figure 2) | part of the applied dose absorbed [3]
1 | CC(C)c1c(C(=O)Nc2ccccc2)c(-c2ccccc2)c(-c2ccc(F)cc2)n1CC[C@@H](O)C[C@@H](O)CC(=O)O [atorvastatin hemi-calcium salt, reference compound] | 8.0 |  |  |  | 
2 | CC(C)c1c(C(=O)Nc2ccccc2)c(-c2ccccc2)c(-c2ccc(F)cc2)n1CC[C@@H](O)C[C@@H](O)CC(=O)O.NCCCC[C@H](N)C(=O)O [atorvastatin L-lysine salt] | 1.1 | significantly better | no difference | significantly faster | 
3 | CC(C)c1c(C(=O)Nc2ccccc2)c(-c2ccccc2)c(-c2ccc(F)cc2)n1CC[C@@H](O)C[C@@H](O)CC(=O)O [atorvastatin hemi-calcium salt, (3R,5R)-7-[3-phenyl-4-[(phenylamino)carbonyl]-2-(4-fluorophenyl)-5-(1-methyl-ethyl)-pyrrol-1-yl]-3,5-dihydroxy-heptanoic acid] |  |  |  |  | about 30%
4 | CC(C)c1c(C(=O)Nc2ccccc2)c(-c2ccccc2)c(-c2ccc(F)cc2)n1CCC(O)CC(O)CC(=O)O.N=C(N)NCCCC(N)C(=O)O [L-arginine salt, Atorvastatin L-arginine salt] |  |  | no difference |  | 
